Structures can show the parent of a compound that is named as a salt.
Molecular target: T1, protein farnesyltransferase (Rattus norvegicus, UniProt Q02293+Q04631)
T1 construct: The enzyme is purified according to Reiss, Y., et al., Cell, 62: 81-88 (1990), utilizing steps one through three; from tissue; host or cells: rat brain
Test: Inhibition of farnesyltransferase (scintillation proximity assay, rat brain enzyme, biotin-K Ras B fragment substrate)
Format: biochemical
Conditions: for % inhibition of farnesyltransferase at 1 × 10^-7 M / inhibition at 0.1 µM: 1 × 10^-7 M (Table 3); for % inhibition of farnesyltransferase at 1 × 10^-6 M / inhibition at 1 µM: 1 × 10^-6 M (Table 2); for inhibition at 0.1 µM: read-out: % inhibition of farnesyltransferase at 1 × 10^-7 M; for inhibition at 1 µM: read-out: % inhibition of farnesyltransferase at 1 × 10^-6 M; for % inhibition of farnesyltransferase at 1 × 10^-8 M: 1 × 10^-8 M (Table 4)
Procedure, shortened: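 Enzyme from rat brain, partly purified (steps one to three), assayed by SPA kit using 0.1 mM final biotin-K Ras B peptide as prenyl acceptor rather than biotin-lamin. Activity given as percent inhibition.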

T1 sequence (Q02293 whole entry, one chain of several): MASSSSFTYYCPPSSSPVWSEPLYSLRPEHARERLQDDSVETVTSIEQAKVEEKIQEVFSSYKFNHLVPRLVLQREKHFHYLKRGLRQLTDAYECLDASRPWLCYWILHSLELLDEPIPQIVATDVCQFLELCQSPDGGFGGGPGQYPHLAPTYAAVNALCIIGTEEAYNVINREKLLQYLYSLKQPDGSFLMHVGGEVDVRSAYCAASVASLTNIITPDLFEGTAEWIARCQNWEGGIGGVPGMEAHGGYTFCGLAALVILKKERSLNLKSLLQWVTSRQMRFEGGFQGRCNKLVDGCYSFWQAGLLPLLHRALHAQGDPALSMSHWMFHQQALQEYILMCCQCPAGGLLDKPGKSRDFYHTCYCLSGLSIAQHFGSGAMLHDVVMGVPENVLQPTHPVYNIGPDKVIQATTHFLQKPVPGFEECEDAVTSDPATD

CSCC[C@H](NC(=O)c1ccc(CN(Cc2ccc(Cl)cc2)c2ccccc2)cc1-c1ccccc1C)C(=O)O [Example 781]
% inhibition of farnesyltransferase at 1 × 10^-7 M: 91%

CSCC[C@H](NC(=O)c1ccc(CN(Cc2ccc(C(F)(F)F)cc2)c2ccccc2)cc1-c1ccccc1C)C(=O)O [Example 782]
% inhibition of farnesyltransferase at 1 × 10^-6 M: 96%

CSCC[C@H](NC(=O)c1ccc(C=Cc2cncs2)cc1-c1ccccc1C)C(=O)O [Example 785, N-[4-(2-(thiazol-5-yl)ethen-1-yl)-2-(2-methylphenyl)benzoyl]methionine lithium salt]
inhibition at 0.1 µM: 96%

CSCC[C@H](NC(=O)c1ccc(-c2ccccc2-c2ccccc2)cc1-c1ccccc1C)C(=O)O [Example 786, N-[4-(2-phenylphenyl)-2-(2-methylphenyl)benzoyl]methionine lithium salt]
inhibition at 1 µM: 34%

CSCC[C@H](NC(=O)c1ccc(-c2cccc(-c3ccccc3)c2)cc1-c1ccccc1C)C(=O)O [Example 787, N-[4-(3-phenylphenyl)-2-(2-methylphenyl)benzoyl]methionine lithium salt]
inhibition at 1 µM: 70%

CSCC[C@H](NC(=O)c1ccc(-c2ccc(-c3ccccc3)cc2)cc1-c1ccccc1C)C(=O)O [Example 788, N-[4-(4-phenylphenyl)-2-(2-methylphenyl)benzoyl]methionine lithium salt]
inhibition at 1 µM: 44%

CSCC[C@H](NC(=O)c1ccc(C[C@H]2CC[C@@H](c3ccccc3)CC2)cc1-c1ccccc1C)C(=O)O [Example 790, N-[4-syn-(4-phenylcyclohexylmethyl)-2-(2-methylphenyl)benzoyl]methionine lithium salt]
inhibition at 1 µM: 88%

CSCC[C@H](NC(=O)c1ccc(/C=C/c2ccccc2)cc1-c1ccccc1C)C(=O)O [Example 791, N-[4-(2-phenylethen-1-yl)-2-(2-methylphenyl)benzoyl]methionine]
inhibition at 1 µM: 53%

CSCC[C@H](NC(=O)c1ccc(CCc2cccc(-c3ccccc3)c2)cc1-c1ccccc1C)C(=O)O [Example 793, N-[4-(2-(3-phenylphenyl)ethyl)-2-(2-methylphenyl)benzoyl]methionine lithium salt]
inhibition at 1 µM: 94%

CSCC[C@H](NC(=O)c1ccc(COc2ccc(Oc3ccccc3)cc2)cc1-c1ccccc1C)C(=O)[O-].[Li+] [Example 795]
% inhibition of farnesyltransferase at 1 × 10^-7 M: 87%

CCOC(=O)N1CCC(NCc2ccc(C(=O)N[C@@H](CCSC)C(=O)[O-])c(-c3ccccc3C)c2)CC1.[Li+] [Example 806]
% inhibition of farnesyltransferase at 1 × 10^-6 M: 72%

CSCC[C@H](NC(=O)c1ccc(COC2CCN(Cc3ccccc3)CC2)cc1-c1ccccc1C)C(=O)O [Example 807]
% inhibition of farnesyltransferase at 1 × 10^-6 M: 90%

CSCC[C@H](NC(=O)c1ccc(COC2CCN(C(=O)OC(C)(C)C)CC2)cc1-c1ccccc1C)C(=O)[O-].[Li+] [Example 808]
% inhibition of farnesyltransferase at 1 × 10^-6 M: 88%

CSCC[C@H](NC(=O)c1ccc(COC2(Cc3ccccc3)CCN(C(=O)OC(C)(C)C)CC2)cc1-c1ccccc1C)C(=O)[O-].[Li+] [Example 809]
% inhibition of farnesyltransferase at 1 × 10^-6 M: 78%

CSCC[C@H](NC(=O)c1ccc(/C=C/c2ccc(Oc3ccccc3)nn2)cc1-c1ccccc1C)C(=O)O [Example 810, N-[4-(2-(3-phenoxypyridazin-6-yl)ethen-1-yl)-2-(2-methylphenyl)benzoyl]methionine lithium salt]
inhibition at 1 µM: 89%

CSCC[C@H](NC(=O)c1ccc(CCc2ccc(Oc3ccccc3)nn2)cc1-c1ccccc1C)C(=O)O [Example 811, N-[4-(2-(3-phenoxylyridazin-6-yl)ethyl)-2-(2-methylphenyl)benzoyl]methionine lithium salt]
inhibition at 0.1 µM: 85%

CSCC[C@H](NC(=O)c1ccc(/C=C/c2cnc(Oc3ccccc3)cn2)cc1-c1ccccc1C)C(=O)O [Example 812, lithium salt]
inhibition at 1 µM: 94%

CSCC[C@H](NC(=O)c1ccc(CCc2cnc(Oc3ccccc3)cn2)cc1-c1ccccc1C)C(=O)O [Example 813, lithium salt]
inhibition at 1 µM: 95%

CSCC[C@H](NC(=O)c1ccc(COC2(c3ccccc3)CCN(C(=O)OC(C)(C)C)CC2)cc1-c1ccccc1C)C(=O)[O-].[Li+] [Example 816]
% inhibition of farnesyltransferase at 1 × 10^-6 M: 87%

CSCC[C@H](NC(=O)c1ccc(COC2CCC(NC(=O)OC(C)(C)C)CC2)cc1-c1ccccc1C)C(=O)[O-].[Li+] (some centres unmarked) [Example 817]
% inhibition of farnesyltransferase at 1 × 10^-7 M: 60%

CSCC[C@H](NC(=O)c1ccc(COCc2ccc(-c3ccc(Cl)cc3)o2)cc1-c1ccccc1C)C(=O)NS(C)(=O)=O [Example 818]
% inhibition of farnesyltransferase at 1 × 10^-7 M: 78%

CSCC[C@H](NC(=O)c1ccc(COCc2ccc(-c3ccc(Cl)cc3)o2)cc1-c1ccccc1C)C(=O)NS(=O)(=O)c1ccccc1 [Example 819]
% inhibition of farnesyltransferase at 1 × 10^-8 M: 76%

CSCC[C@H](NC(=O)c1ccc(COCc2ccc(-c3ccc(C(C)C)cc3)o2)cc1-c1ccccc1C)C(=O)[O-].[Li+] [Example 820]
% inhibition of farnesyltransferase at 1 × 10^-8 M: 66%

CSCC[C@H](NC(=O)c1ccc(COCc2ccc(-c3ccc(N(C)C)cc3)o2)cc1-c1ccccc1C)C(=O)O [Example 821]
% inhibition of farnesyltransferase at 1 × 10^-8 M: 75%

CSCC[C@H](NC(=O)c1ccc(COCC2CCC(c3ccc(Cl)cc3)O2)cc1-c1ccccc1C)C(=O)O (some centres unmarked) [Example 822]
% inhibition of farnesyltransferase at 1 × 10^-7 M: 93%

CSCC[C@H](NC(=O)c1ccc(CN2CCC[C@H]2COCc2ccccc2)cc1-c1ccccc1C)C(=O)O [Example 824, N-[4-(2-benzyloxymethylpyrrolidin-1-ylmethyl)-2-(2-methylphenyl)benzoyl]methionine]
inhibition at 1 µM: 90%

CCCCC(OCc1ccc(C(=O)N[C@@H](CCSC)C(=O)[O-])c(-c2ccccc2C)c1)c1ccco1.[Li+] (some centres unmarked) [Example 825]
% inhibition of farnesyltransferase at 1 × 10^-7 M: 79%

CCCCC(OCc1ccc(C(=O)N[C@@H](CCSC)C(=O)[O-])c(-c2ccccc2C)c1)c1ccc(-c2ccc(Cl)cc2)o1.[Li+] (some centres unmarked) [Example 826]
% inhibition of farnesyltransferase at 1 × 10^-8 M: 92%

CSCC[C@H](NC(=O)c1ccc(COCc2occc2-c2ccc(Cl)cc2)cc1-c1ccccc1C)C(=O)[O-].[Li+] [Example 827]
% inhibition of farnesyltransferase at 1 × 10^-8 M: 77%

CSCC[C@H](NC(=O)c1ccc(COC(Cc2ccccc2)c2cncs2)cc1-c1ccccc1C)C(=O)[O-].[Li+] (some centres unmarked) [Example 828]
% inhibition of farnesyltransferase at 1 × 10^-8 M: 87%

CSCC[C@H](NC(=O)c1ccc(COCc2oc(-c3ccc(Cl)cc3)c(Cl)c2Cl)cc1-c1ccccc1C)C(=O)[O-].[Li+] [Example 829]
% inhibition of farnesyltransferase at 1 × 10^-8 M: 92%

CSCC[C@H](NC(=O)c1ccc(CN(Cc2ccco2)C(C)C)cc1-c1ccccc1C)C(=O)O [Example 831]
% inhibition of farnesyltransferase at 1 × 10^-6 M: 92%

CSCC[C@H](NC(=O)c1ccc(CN(Cc2ccoc2)C(C)C)cc1-c1ccccc1C)C(=O)O [Example 832]
% inhibition of farnesyltransferase at 1 × 10^-6 M: 80%

CSCC[C@H](NC(=O)c1ccc(CN(Cc2ccccc2)Cc2ccccc2)cc1-c1ccccc1)C(=O)O [Example 834]
% inhibition of farnesyltransferase at 1 × 10^-6 M: 55%

CSCC[C@H](NC(=O)c1ccc(CN(CCc2ccccc2)C(C)C)cc1-c1ccccc1C)C(=O)O [Example 835]
% inhibition of farnesyltransferase at 1 × 10^-6 M: 96%

CSCC[C@H](NC(=O)c1ccc(CN(Cc2ccccc2)c2cncnc2)cc1-c1ccccc1C)C(=O)O [Example 836]
% inhibition of farnesyltransferase at 1 × 10^-8 M: 95%

CSCC[C@H](NC(=O)c1ccc(CN(Cc2ccc3c(c2)OCO3)c2cncnc2)cc1-c1ccccc1C)C(=O)O [Example 837]
% inhibition of farnesyltransferase at 1 × 10^-8 M: 91%

CSCC[C@H](NC(=O)c1ccc(CN(Cc2ccc3c(c2)OCO3)c2cnccn2)cc1-c1ccccc1C)C(=O)O [Example 838]
% inhibition of farnesyltransferase at 1 × 10^-8 M: 92%

COc1ccccc1N(Cc1ccccc1)Cc1ccc(C(=O)N[C@@H](CCSC)C(=O)O)c(-c2ccccc2C)c1 [Example 839]
% inhibition of farnesyltransferase at 1 × 10^-7 M: 63%

COc1ccc(N(Cc2ccccc2)Cc2ccc(C(=O)N[C@@H](CCSC)C(=O)O)c(-c3ccccc3C)c2)cc1 [Example 840]
% inhibition of farnesyltransferase at 1 × 10^-8 M: 73%

CSCC[C@H](NC(=O)c1ccc(CN(Cc2ccccc2)c2cccc([N+](=O)[O-])c2)cc1-c1ccccc1C)C(=O)[O-].[Li+] [Example 842]
% inhibition of farnesyltransferase at 1 × 10^-8 M: 88%

CSCC[C@H](NC(=O)c1ccc(CN(Cc2ccccc2)c2ccc([N+](=O)[O-])cc2)cc1-c1ccccc1C)C(=O)O [Example 843]
% inhibition of farnesyltransferase at 1 × 10^-8 M: 96%

CSCC[C@H](NC(=O)c1ccc(CN(Cc2ccccc2)c2ccccc2C(C)=O)cc1-c1ccccc1C)C(=O)O [Example 844]
% inhibition of farnesyltransferase at 1 × 10^-6 M: 92%

CSCC[C@H](NC(=O)c1ccc(CN(Cc2ccccc2)c2cccc(C(C)=O)c2)cc1-c1ccccc1C)C(=O)O [Example 845]
% inhibition of farnesyltransferase at 1 × 10^-8 M: 85%

CSCC[C@H](NC(=O)c1ccc(CN(Cc2ccccc2)c2ccccc2Cl)cc1-c1ccccc1C)C(=O)O [Example 846]
% inhibition of farnesyltransferase at 1 × 10^-6 M: 85%

CSCC[C@H](NC(=O)c1ccc(CN(Cc2ccccc2)c2cccc(Cl)c2)cc1-c1ccccc1C)C(=O)O [Example 847]
% inhibition of farnesyltransferase at 1 × 10^-8 M: 85%

CSCC[C@H](NC(=O)c1ccc(CN(Cc2ccccc2)c2ccc(Cl)cc2)cc1-c1ccccc1C)C(=O)O [Example 848]
% inhibition of farnesyltransferase at 1 × 10^-8 M: 87%

CSCC[C@H](NC(=O)c1ccc(CN(Cc2ccccc2)c2ccccc2[N+](=O)[O-])cc1-c1ccccc1C)C(=O)[O-].[Li+] [Example 849]
% inhibition of farnesyltransferase at 1 × 10^-7 M: 66%

CSCC[C@H](NC(=O)c1ccc(CN(Cc2ccccc2)c2ccccc2SC)cc1-c1ccccc1C)C(=O)[O-].[Li+] [Example 850]
% inhibition of farnesyltransferase at 1 × 10^-6 M: 90%

CSCC[C@H](NC(=O)c1ccc(CN(Cc2ccccc2)c2cccc(SC)c2)cc1-c1ccccc1C)C(=O)[O-].[Li+] [Example 851]
% inhibition of farnesyltransferase at 1 × 10^-8 M: 82%

From US6221865A, “Inhibitors of protein isoprenyl transferases” (priority 1998, dated 2001)
